Test [1] concerns KRAS-G4 (Pu24m1) (DNA, G4) TGAGGGCGGTGTGGGAATAGGGAA
In words: NMR solution structure. The note with it: 50 mM K+; 1.5 mM DNA, pH 7, DMSO-d6 < 3.5%; stacks on both outer tetrads.

The test system is the same in test [2]. In words: fluorescence titration. The settings on record: 50 mM K+; pH 7; 0.2 μM compound fixed, titrated with DNA; 2:1 binding equation.
Test [3] relates to MYC-G4 (DNA, G4) TGAGGGTGGGTAGGGTGGGTAA
In words: 1H NMR titration. The settings on record: 50 mM K+; 150 μM DNA, pH 7, 25 °C, DMSO-d6 < 1.5%.

The subject of test [4] is VEGF-G4 (DNA, G4) CAGGGCGGGCCTTGGGCGGGAT
In words: 1H NMR titration. The note with it: 50 mM K+; 150 μM DNA, pH 7, 25 °C, DMSO-d6 < 1.5%.

Test [5] deals with KRAS-G4 (Pu24m1) (DNA, G4) TGAGGGCGGTGTGGGAATAGGGAA
Put plainly: CD melting (264 nm). The note with it: 15 mM K+; potassium phosphate/KCl, pH 7; 20 μM DNA, 2 equivalents compound.

By Kd is commonly meant the concentration at which binding is half-saturated. Usually ΔTm stands for the shift of the melting midpoint relative to a reference. Consider `COc1ccc2cc3[n+](cc2c1OC)CCc1cc2c(cc1-3)OCO2`, for which the binding entry in test [1], in test [3] and in test [4] was “yes” each time. The same compound registered a Kd in test [2] of 550 nM. In test [5], the ΔTm was determined as 15 °C.

In the case of `c1c2c(cc3c1OCO3)-c1cc3ccc4c(c3c[n+]1CC2)OCO4`, the binding entry in test [1], in test [3] and in test [4] was “yes” each time. In test [2], this compound came in with a dissociation constant Kd of 500 nM. Moreover, the ΔTm in test [5] was 19 °C.
